# Data reported in US20210244813A1, “ADJUVANT AND VACCINE COMPOSITIONS” (priority 2012, published 2021).
# System: IL-4
# Test: Relative IL-4 mRNA expression (real time RT-PCR) in cultured splenic lymphocytes of vaccinated mice
# Assay type: cell-based
# Conditions: vaccine treatment group; culture with LAP, LAP/QAC or OVA
substance,measurement,value
OVA,IL-4 expression normalized to ARBP at 48 hours in culture,Increased IL-4 expression was observed for some animals
